The record followed here is article PMC12775434, “Ultra-large virtual screening unveils potent agonists of the neuromodulatory orphan receptor GPR139” (Nature Communications, 2025).

Molecules are shown by their SMILES. Several values for one entry are separate records, joined by “and”; a condition that tells them apart may be missing. Identical values can stand only once. Like-named read-outs stand apart in the source and are kept apart here.

What all share (type): cell-based
In test [1] the target is T1, GPR139 (Homo sapiens, UniProt Q6DWJ6).
T1 sequence (Q6DWJ6 1-353): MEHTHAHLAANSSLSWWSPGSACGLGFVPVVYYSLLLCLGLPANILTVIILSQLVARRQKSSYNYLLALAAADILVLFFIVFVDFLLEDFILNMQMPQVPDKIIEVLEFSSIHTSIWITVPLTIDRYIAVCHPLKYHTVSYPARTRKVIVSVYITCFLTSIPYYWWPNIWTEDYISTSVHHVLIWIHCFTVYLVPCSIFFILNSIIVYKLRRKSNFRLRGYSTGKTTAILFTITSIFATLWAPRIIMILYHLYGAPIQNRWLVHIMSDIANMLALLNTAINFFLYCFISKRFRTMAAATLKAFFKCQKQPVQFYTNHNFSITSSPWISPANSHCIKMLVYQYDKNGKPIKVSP
Put plainly: Ca2+ mobilization assay, antagonist mode (EC80 800 nM Lundbeck Cmp 1a after 20 min preincubation), GPR139-CHOk1. The settings on record: individual replicates (Supplementary Figure 4). The gist of the method:
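Fluo-4-loaded GPR139-CHOk1 cells in HEPES-buffered HBSS (pH 7.4, 2.5 mM probenecid) given test compounds at 10 µM, then after 20 min challenged with 800 nM Lundbeck Cmp 1a (EC80). Calcium fluorescence read at 37 °C, 485/525 nm.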
On the technique in general: Calcium flux is commonly read through the fluorescence of an indicator in the cells.

The target of test [2] is T2, human muscarinic acetylcholine M1 receptor (M1R) (Homo sapiens, UniProt P11229).
T2 sequence (P11229 1-460): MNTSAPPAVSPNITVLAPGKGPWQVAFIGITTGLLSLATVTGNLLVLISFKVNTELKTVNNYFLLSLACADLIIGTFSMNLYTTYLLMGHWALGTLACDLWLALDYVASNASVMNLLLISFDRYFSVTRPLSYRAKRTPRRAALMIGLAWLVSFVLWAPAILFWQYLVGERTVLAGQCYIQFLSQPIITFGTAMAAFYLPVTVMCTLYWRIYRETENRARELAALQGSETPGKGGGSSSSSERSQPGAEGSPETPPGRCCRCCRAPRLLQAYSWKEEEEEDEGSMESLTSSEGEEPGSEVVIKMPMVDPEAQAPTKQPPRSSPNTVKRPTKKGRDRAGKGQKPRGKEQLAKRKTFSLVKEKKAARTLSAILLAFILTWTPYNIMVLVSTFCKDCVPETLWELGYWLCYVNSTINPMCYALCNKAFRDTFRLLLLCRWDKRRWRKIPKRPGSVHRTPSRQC
Put plainly: Ca2+ mobilization counter-screen in M1R-CHOk1 cells. The settings on record: individual replicates (Supplementary Figure 5). Put shortly:
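M1R-CHOk1 cells seeded 20–24 h, loaded with 2 µM Fluo-4 AM (2.5 mM probenecid, 0.01% Pluronic F-68) for 1 h at 37 °C in HBSS/20 mM HEPES pH 7.4. Compounds added after baseline (≤0.3% DMSO); calcium fluorescence read at 37 °C, ex 485/em 525 nm.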

The target of test [3] is T1, GPR139. Description: Ca2+ mobilization assay, agonist mode, stable GPR139-CHOk1 cell line. As to conditions: for Emax: normalized to Lundbeck Cmp 1a, read-out: Emax (%) Ca2+. The gist of the method: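 Agonist activity of compounds is assessed in stably transfected CHO-K1 cells using the calcium dye Fluo-4 at 37 °C in HEPES-buffered HBSS (pH 7.4). Efficacy is expressed relative to the reference agonist Lundbeck Cmp 1a, set as 100%.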

The mark [4] stands for this setting: Agonist mode, individual replicates (Supplementary Figure 4).
The mark [5] stands for this setting: Supplementary Table 2, mean ± SEM.
Setting [6] is: log [Compound] M = -4.5, individual replicate columns.
Where [7] appears, read: log [Compound] M = -5.0, individual replicate columns.
The mark [8] stands for this setting: log [Compound] M = -5.5, individual replicate columns.
[9] abbreviates: log [Compound] M = -6.0, individual replicate columns.
The mark [10] stands for this setting: log [Compound] M = -6.5, individual replicate columns.
The mark [11] stands for this setting: log [Compound] M = -7.0, individual replicate columns.
Where [12] appears, read: log [Compound] M = -7.5, individual replicate columns.
Setting [13] is: log [Compound] M = -8.0, individual replicate columns.
Where [14] appears, read: log [Compound] M = -8.5, individual replicate columns.
[15] abbreviates: log [Compound] M = -9.0, individual replicate columns.

Turning to `COc1cccc(-c2nc(CC(=O)NC(C)c3ccccc3)no2)c1` (stereo not drawn) [Compound 1.10, COC1=CC(C2=NC(CC(NC(C3=CC=CC=C3)C)=O)=NO2)=CC=C1], the “Ca2+ signal (% of Cmp 1a)” value was 0.667 % of Cmp 1a and -2.67 % of Cmp 1a and -13 % of Cmp 1a on GPR139 [1]; 119 % of Cmp 1a and 102 % of Cmp 1a and 114 % of Cmp 1a at GPR139 [3] (setting [4]); 112 % of Cmp 1a and 110 % of Cmp 1a and 101 % of Cmp 1a at GPR139 [3] (setting [6]); 114 % of Cmp 1a (2×) and 92 % of Cmp 1a on GPR139 [3] (setting [7]); 118 % of Cmp 1a and 113 % of Cmp 1a and 104 % of Cmp 1a on GPR139 [3] (setting [8]); 92 % of Cmp 1a and 83 % of Cmp 1a and 79 % of Cmp 1a on GPR139 [3] (setting [9]). The “Ca2+ signal (% of Cmp 1a)” value on GPR139 [3] (setting [10]) is 70 % of Cmp 1a and 58 % of Cmp 1a and 60 % of Cmp 1a; at GPR139 [3] (setting [11]), 51 % of Cmp 1a and 30 % of Cmp 1a and 40 % of Cmp 1a; at GPR139 [3] (setting [12]) it was 20 % of Cmp 1a and 5.67 % of Cmp 1a and 19 % of Cmp 1a; at GPR139 [3] (setting [13]) it was 10 % of Cmp 1a and -8 % of Cmp 1a and 0.333 % of Cmp 1a; at GPR139 [3] (setting [14]) it was 11 % of Cmp 1a and -17 % of Cmp 1a and 4 % of Cmp 1a; on GPR139 [3] (setting [15]) it was 16 % of Cmp 1a and -3 % of Cmp 1a and 6.33 % of Cmp 1a. The “Ca2+ signal (% of Carbachol)” value in test [2] is 12 % of Carbachol and -9 % of Carbachol and 13 % of Carbachol. For the same molecule, the EC50 at GPR139 [3] (GPR139-CHOk1, read-out: EC50, Ca2+ mobilization) turned out to be 200 nM. Also, the Emax – broadly, the size of the effect at its maximum, as opposed to the concentration needed – on GPR139 [3] (setting [5]) was found to be 111 ± 5%.
For `CCn1nc(-c2nc(CC(=O)NC(C)c3ccccc3)no2)cc1C` (stereo not drawn) [Compound 1.27, CCN1N=C(C2=NC(CC(NC(C3=CC=CC=C3)C)=O)=NO2)C=C1C], the “Ca2+ signal (% of Cmp 1a)” value was 24 % of Cmp 1a and -1.33 % of Cmp 1a and 22 % of Cmp 1a at GPR139 [1]; 81 % of Cmp 1a and 93 % of Cmp 1a and 60 % of Cmp 1a on GPR139 [3] (setting [4]); 101 % of Cmp 1a and 107 % of Cmp 1a and 86 % of Cmp 1a at GPR139 [3] (setting [6]); 91 % of Cmp 1a and 71 % of Cmp 1a and 89 % of Cmp 1a at GPR139 [3] (setting [7]); 56 % of Cmp 1a and 61 % of Cmp 1a and 76 % of Cmp 1a on GPR139 [3] (setting [8]); 25 % of Cmp 1a and 33 % of Cmp 1a and 48 % of Cmp 1a at GPR139 [3] (setting [9]). For the same molecule, the “Ca2+ signal (% of Cmp 1a)” value on GPR139 [3] (setting [10]) was 9 % of Cmp 1a and 7 % of Cmp 1a and 10 % of Cmp 1a; at GPR139 [3] (setting [11]) it was 4.22 % of Cmp 1a and -3 % of Cmp 1a and 6.42 % of Cmp 1a; on GPR139 [3] (setting [12]) it was 8 % of Cmp 1a and 2.12 % of Cmp 1a and -0.804 % of Cmp 1a; on GPR139 [3] (setting [13]), 0.271 % of Cmp 1a and 9 % of Cmp 1a and -0.437 % of Cmp 1a; on GPR139 [3] (setting [14]), -3 % of Cmp 1a and 2.65 % of Cmp 1a and 6.66 % of Cmp 1a; at GPR139 [3] (setting [15]), 4 % of Cmp 1a and -0.687 % of Cmp 1a and 5 % of Cmp 1a. Also, the “Ca2+ signal (% of Carbachol)” value in test [2] was -1.81 % of Carbachol and 1.46 % of Carbachol and 5 % of Carbachol. In addition, the EC50 on GPR139 [3] (Supplementary Table 2, mean ± SEM, read-out: pEC50 Ca2+ (converted)) is 2000 nM. Also, at GPR139 [3] (setting [5]), the Emax was found to be 96 ± 6%.
